Laboratory results taken from patent US20180282279A1, “Pantothenamide Analogues” (Radboud Universitair Medisch Centrum, priority 2014, published 2018).
Converted amounts (≈) assume the structure as drawn. Where two headings read alike, the source gives them in different places.

Tests used:
[1] = test system: Staphylococcus epidermidis; test: Bacterial growth assay and MIC determination, S. epidermidis; assay type: cell-based; settings: S. epidermidis, serum −
Experimental: (§1) Strains of Escherichia coli, Staphylococcus aureus and Staphylococcus epidermidis, were grown overnight in 1% Bacto tryptone medium (BD, Sparks, Md.). Streptococcus pyogenes was grown overnight in Bacto Todd Hewitt Broth medium (BD, Sparks, Md.). Cultures were then diluted 1:1,000 in fresh assay medium supplemented with or without 20% fetal bovine serum (FBS; HyClone, Celbio, Logan, Utah) and added to 96-well sterile enzyme-linked immunosorbent assay (ELISA) plates (100 μl per well). The compounds to be tested were diluted in the medium without serum and added to the bacteria (100 μl per well). Plates were incubated at 37° C., and bacterial growth was monitored over time by reading the optical density at 490 nm using a microplate reader (model 450; Bio-Rad Laboratories Inc., Hercules, Calif.). Streptococcus pneumoniae strains were grown to mid-log phase (OD620 of 0.3) and stored in 15% glycerol at […] till further use. Minimal inhibitory concentration (MIC) of antibiotics was determined according to standard procedures. Bacteria were diluted 10-fold in Mueller-Hinton medium (BD, Sparks, Md.) and added to 96-well sterile ELISA plates (150 μl per well). The compounds to be tested were diluted in the medium without serum and added to the bacteria (150 μl per well). Plates were incubated overnight at 37° C. in 5% CO2. The MIC was defined as the lowest concentration of compound at which no growth was visible with the naked eye.

[2] = Pharmacokinetic study in rats; assay type: in vivo; settings: 50 mg/kg
Experimental: To address the question if increased stability would also lead to improved bioavailability in vivo, a pharmacokinetic study was performed. Briefly, the pantothenamides N5-Pan (an antibacterial compound) and CXP18.3-002 (an antimalarial compound), and their corresponding inverted amides CXP18.6-013 and CXP18.6-006 were administered to rats at 50 mg/kg dissolved in saline. Blood samples were collected from 3 rats before the experiment and at 0.25, 0.5, 1, 2, 4, 6, 8, 12 and 24 h. The concentrations of the compounds were analyzed by LC-MS/MS (AB Sciex API-4000 system). Data were analyzed by the Non-compartmental analysis tool of Phoenix WinNonlin (Version 6.3).

Staphylococcus aureus = test: Bacterial growth assay and MIC determination, S. aureus; assay type: cell-based; settings: S. aureus
Experimental: as §1

Streptococcus pneumoniae = test: MIC determination, S. pneumoniae; assay type: cell-based; settings: Streptococcus pneumoniae; S. pneumoniae, serum −; read-out: MIC
Experimental: Streptococcus pneumoniae strains were grown to mid-log phase (OD620 of 0.3) and stored in 15% glycerol at […] till further use. Minimal inhibitory concentration (MIC) of antibiotics was determined according to standard procedures. Bacteria were diluted 10-fold in Mueller-Hinton medium (BD, Sparks, Md.) and added to 96-well sterile ELISA plates (150 μl per well). The compounds to be tested were diluted in the medium without serum and added to the bacteria (150 μl per well). Plates were incubated overnight at 37° C. in 5% CO2. The MIC was defined as the lowest concentration of compound at which no growth was visible with the naked eye.

Escherichia coli = test: Bacterial growth assay and MIC determination, E. coli; assay type: cell-based; settings: serum −
Experimental: as §1

Streptococcus pyogenes = test: Bacterial growth assay and MIC determination, S. pyogenes; assay type: cell-based; settings: S. pyogenes, serum −
Experimental: as §1

[3] = test system: Plasmodium berghei strain 676c11 (PbGFP-Luc); test: In vivo rodent malaria model; settings: female Wistar rats, 6 mg/kg orally three times a day, day 5-8
From the text: Female mice (C57 Black 6, 9-10 weeks of age at the start of the experiment) and female rats (Wistar, 150-200 grams at the beginning of the experiment) were housed under standard conditions and experiments were approved by the institutional ethical committee on animal care and experimentation of Radboud University Medical Centre (Nijmegen).
To test our compounds in an in vivo malaria model we used a well described rodent malaria model (Zuckerman and Yoeli, J Infect Dis. 94, 225-36). First, donor mice were infected by 0.2 ml cryopreserved infected blood stocks containing the transgenic Plasmodium berghei strain 676c11 (PbGFP-Luc). After four days the mice were sacrificed and their blood was collected. The parasitemia in the blood from the mice was calculated as percentage of infected red blood cells (RBC) by Giemsa-stained blood smears. Infected blood was diluted to 5×10^7 parasites per ml and 0.2 ml was i.p. injected in rats (inoculation of 10′ parasites per rat). Treatment with chloroquine (6 mg/kg), CXP18.6-017 (100 mg/kg) and CXP18.6-052 (100 mg/kg) started 5 days post inoculation and where given orally three times a day until day eight. From day 5 blood samples were collected and parasitemia was determined by analysis of Giemsa-stained blood smears. The infection and treatment regimes were well tolerated by the animals.

[4] = Staphylococcus epidermidis, read-out: MIC
[5] = Staphylococcus aureus, serum −, read-out: MIC
[6] = Escherichia coli, read-out: MIC

| MIC [1, 4] [µg/mL] | MIC (Staphylococcus aureus; [5]) [µg/mL] | MIC (Streptococcus pneumoniae) [µg/mL] | MIC (Escherichia coli; [6]) [µg/mL] | MIC (Staphylococcus aureus; serum + (10% serum)) [µg/mL] | SMILES | other results |
| --- | --- | --- | --- | --- | --- | --- |
| 32 (≈ 111 µM) | 8 (≈ 27.7 µM) | 0.25 (≈ 0.867 µM) | 64 (≈ 222 µM) | – | CCCCCNC(=O)CCNC(=O)[C@H](O)C(C)(C)CO [Compound N5-Pan, N-pentylpantothenamide, reference compound] | detection in blood following oral administration [2]: could not or hardly be detected |
| 0.5 (≈ 1.58 µM) | 0.5 (≈ 1.58 µM) | 2 (≈ 6.32 µM) | 128 (≈ 404 µM) | >256 | CCCCCCCNC(=O)CCNC(=O)[C@H](O)C(C)(C)CO [Compound N7-Pan, N-heptylpantothenamide, reference compound] | MIC (Staphylococcus aureus; Staphylococcus aureus, serum + (10% serum), read-out: MIC): > 256 µg/mL; MIC (Streptococcus pyogenes; Streptococcus pyogenes, read-out: MIC): 2 µg/mL (≈ 6.32 µM) |
| – | – | – | – | >256 | CCCCCCCCCNC(=O)CCNC(=O)[C@H](O)C(C)(C)CO [Compound N9-Pan, reference compound] | MIC [1]: 0.25 µg/mL (≈ 0.726 µM); MIC (Staphylococcus aureus; serum −): 0.5 µg/mL (≈ 1.45 µM); MIC (Streptococcus pyogenes): 16 µg/mL (≈ 46.4 µM); MIC (Escherichia coli): >256 µg/mL |
| – | – | – | – | – | CCN(CC)CCCC(C)Nc1ccnc2cc(Cl)ccc12 (stereo not drawn) [chloroquine, reference compound] | parasitemia [3]: reduced parasitemia to nearly undetectable levels within 3 days |
